Results taken from US9399646B2 (Genentech, Inc., priority 2010, dated 2016).
Like-named read-outs stand apart in the source and are kept apart here.

Experiments:
Type in all cases: cell-based
MCF-7 cells = assay: Breast cancer cell viability assay (CellTiter-Glo, 5 days); details: 5 days' compound exposure; for IC50: Homo sapiens, MCF7, 120 h
In short: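 Eleven-point semilog compound series, final 0.3-0.000003 μM, added to overnight-adhered MCF-7 cells (320/well; RPMI, 10% FBS, 20 mM HEPES) for 5 days. Viability read by CellTiter-Glo luminescence, background from medium without cells subtracted, expressed relative to untreated cells.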

ER-α in MCF-7 cells [1] = target: T1, ER-α in MCF-7 cells (Homo sapiens, UniProt P03372); assay: Breast cancer cell ER-α in cell western assay (SP1); set-up: MCF-7 cells were adjusted to a concentration of 200,000 cells per mL; endogenous in cells; host or cells: MCF-7; details: 4 or 24 hr post compound addition; for Emax: MCF7, SP1 antibody, read-out: ER-α In Cell Western Assay (SP1) Max Response; for DC50: SP1 antibody, read-out: ER-α In Cell Western Assay (SP1) IC50
T1 sequence (P03372 1-595): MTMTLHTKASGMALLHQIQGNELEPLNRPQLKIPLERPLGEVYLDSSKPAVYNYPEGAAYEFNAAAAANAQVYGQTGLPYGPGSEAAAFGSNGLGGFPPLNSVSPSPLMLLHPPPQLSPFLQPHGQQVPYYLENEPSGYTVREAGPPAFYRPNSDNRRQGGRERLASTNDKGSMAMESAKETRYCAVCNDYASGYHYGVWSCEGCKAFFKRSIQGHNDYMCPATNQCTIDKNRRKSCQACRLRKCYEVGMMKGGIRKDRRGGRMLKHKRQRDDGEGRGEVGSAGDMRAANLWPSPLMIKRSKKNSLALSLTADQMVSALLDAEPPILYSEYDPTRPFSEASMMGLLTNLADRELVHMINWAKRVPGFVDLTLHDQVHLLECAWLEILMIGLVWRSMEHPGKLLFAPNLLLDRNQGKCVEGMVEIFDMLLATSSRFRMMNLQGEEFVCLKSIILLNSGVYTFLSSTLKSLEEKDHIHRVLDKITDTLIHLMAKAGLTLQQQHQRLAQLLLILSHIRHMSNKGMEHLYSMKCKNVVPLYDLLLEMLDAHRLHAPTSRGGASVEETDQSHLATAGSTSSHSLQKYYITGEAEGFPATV
Protocol: MCF-7 cells were adjusted to a concentration of 200,000 cells per mL in RPMI containing 10% charcoal-stripped FBS and 20 mM HEPES. 16 microliters of the cell suspension (3200 cells) was added to each well of a poly-D-lysine 384 well plate, and the cells were incubated overnight to allow the cells to adhere. The following day an eleven point, serial semilog dilution of each compound was added to the cells in 16 μL at a final concentration ranging from 0.3-0.000003 μM. At 4 or 24 hr post compound addition, the cells were fixed (10% formalin in PBS) for 20 minutes. Cells were permeablized in PBS 0.1% Triton and blocked with LICOR blocking buffer (50 μl/well, 90°). The wells were then incubated overnight at 4° C. with SP1 rabbit monoclonal Ab (Thermo Scientific) diluted 1:1000 in LICOR blocking buffer/0.1% Tween-20. Wells which were treated with blocking buffer with Tween but no antibody were used as a background control. Wells were washed with 0.1% Tween-20/PBS and then incubated in goat anti-rabbit IRDye™ 800CW (LICOR Inc.; 1:1000) and DRAQ5 DNA dye (1:2000 for 2 mM stock) diluted in LICOR blocking buffer containing 0.1% Tween-20 and 0.01% SDS for 60 minutes. Cells were washed (50 μl/well, 5′ each) in 0.1% Tween-20/PBS. Plates were scanned on a LICOR Odyssey infrared imaging system. Integrated intensities in the 800 nm channel and 700 nm channel were measured to determine levels of ER and DNA respectively. Percent ER levels were determined as follows: (Integrated intensity 800 nm sample/integrated intensity 700 nm sample)/(Integrated intensity 800 nm untreated cells/integrated intensity 700 nm untreated cells)×100=% ER levels.

ER-α in MCF-7 cells [2] = target: T1, ER-α in MCF-7 cells; assay: as above; set-up: endogenous in cells; host or cells: MCF-7; details: 4 or 24 hr post compound addition; for Emax: MCF7, SP1 antibody, read-out: ER-α In Cell Western Assay (SP1) Max Response; for DC50: SP1 antibody, read-out: ER-α In Cell Western Assay (SP1) IC50
In short: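 Percent remaining ER: SP1 immunofluorescence normalized to DRAQ5 nuclear stain, compared with untreated controls. Treatment lasted 4 or 24 hr across 0.3–0.000003 μM final in MCF-7.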

Row | Structure (SMILES) | IC50 (MCF-7 cells) [nM] | Emax (ER-α in MCF-7 cells [1]) [%] | DC50 (ER-α in MCF-7 cells [1]) [nM] | Emax (ER-α in MCF-7 cells [2]) [%] | DC50 (ER-α in MCF-7 cells [2]) [nM] | MCF7 Viability Assay Max Response (MCF-7 cells)
1 | O=C(O)/C=C/c1ccc(/C(=C(\c2ccncc2Cl)C2CCC2)c2ccc3scnc3c2)cc1 [Compound 285] | ≤ 100 | ≥ 40 | ≤ 100 | – | – | ++ (++ = a single % value ≧ 40%)
2 | CC/C(=C(/c1ccc(/C=C/c2nn[nH]n2)cc1)c1ccc2scnc2c1)c1cscc1C [Compound 447, 5-((E)-1-(4-((E)-2-(2H-Tetrazol-5-yl)vinyl)phenyl)-2-(4-methylthiophen-3-yl)but-1-en-1-yl)benzo[d]thiazole] | ≤ 100 | – | – | ≥ 40 | ≤ 100 | ++ (++ = a single % value ≧ 40%)
3 | Cc1cscc1/C(=C(\c1ccc(/C=C/c2nn[nH]n2)cc1)c1ccc2scnc2c1)C1CCC1 [Compound 448, 5-((E)-1-(4-((E)-2-(2H-Tetrazol-5-yl)vinyl)phenyl)-2-cyclobutyl-2-(4-methylthiophen-3-yl)vinyl)benzo[d]thiazole] | ≤ 100 | – | – | ≥ 40 | ≤ 100 | ++ (++ = a single % value ≧ 40%)
4 | CC/C(=C(/c1ccc2cc(C(=O)O)ccc2c1)c1ccc2[nH]ncc2c1)c1ccccc1 [Compound 449, (E)-6-(1-(1H-Indazol-5-yl)-2-phenylbut-1-en-1-yl)-2-naphthoic acid] | ≤ 100 | – | – | ≥ 40 | ≤ 100 | ++ (++ = a single % value ≧ 40%)
5 | CC/C(=C(/c1ccc(/C=C/S(N)(=O)=O)cc1)c1ccc2[nH]ncc2c1)c1ccccc1 [Compound 452, (E)-2-(4-((E)-1-(1H-Indazol-5-yl)-2-phenylbut-1-en-1-yl)phenyl)ethenesulfonamide] | ≤ 100 | – | – | ≥ 40 | ≤ 100 | ++ (++ = a single % value ≧ 40%)

Continued, in another order:

Row | IC50 (MCF-7 cells) [nM] | Emax (ER-α in MCF-7 cells [1]) [%] | DC50 (ER-α in MCF-7 cells [1]) [nM] | Emax (ER-α in MCF-7 cells [2]) [%] | DC50 (ER-α in MCF-7 cells [2]) [nM] | Structure (SMILES) | MCF7 Viability Assay Max Response (MCF-7 cells)
6 | > 100 | ≥ 40 | > 100 | – | – | CC/C(=C(/c1ccc(/C=C/C(=O)O)cc1)c1cn[nH]c1)c1ccccc1 [Compound 150] | + (+ = a single % value < 40%)
7 | ≤ 100 | – | – | ≥ 40 | ≤ 100 | CC/C(=C(/c1ccc(/C=C/C(=O)O)cc1)c1coc2c(O)cccc12)c1ccc(F)cc1Cl [Compound 450, (E)-3-(4-((E)-2-(2-Chloro-4-fluorophenyl)-1-(7-hydroxybenzofuran-3-yl)but-1-en-1-yl)phenyl)acrylic acid] | ++ (++ = a single % value ≧ 40%)
8 | ≤ 100 | – | – | ≥ 40 | ≤ 100 | CC/C(=C(/c1ccc(/C=C/C(=O)O)cc1)c1coc2c(O)cccc12)c1ccccc1 [Compound 451, (E)-3-(4-((E)-1-(7-Hydroxybenzofuran-3-yl)-2-phenylbut-1-en-1-yl)phenyl)acrylic acid] | ++ (++ = a single % value ≧ 40%)
9 | > 100 | – | – | ≥ 40 | > 100 | CC/C(=C(/c1ccc(/C=C/C(=O)O)cc1)c1cc(F)c2[nH]ncc2c1)c1cc[n+]([O-])cc1Cl [Compound 453, 4-((E)-1-(4-((E)-2-Carboxyvinyl)phenyl)-1-(7-fluoro-1H-indazol-5-yl)but-1-en-2-yl)-3-chloropyridine-1-oxide] | ++ (++ = a single % value ≧ 40%)
